The structures appear in SMILES notation.

Consider one compound from patent US12721906B2, “Kidney targeted delivery of drugs” (The Brigham and Women's Hospital, Inc., priority 2020, dated 2026).

For assay [1], the target named is megalin (Mus musculus, UniProt A2ARV4). As to the method:
Female C57BL/6 mice were divided into two groups. The first group (n=4) was treated subcutaneously with 100 mg/kg Cilastatin sodium salt (>98%, Sigma Aldrich, USA) once daily for 4 days, and the second group (n=3) was treated subcutaneously with DPBS for 4 days. On the day of the last treatment, the LC-NP was injected to the mice. 1 day post injection the mice were euthanized and perfused with DPBS, and the kidneys were harvested and imaged.
Without being bound by any particular theory, it was hypothesized that the accumulation of LC-NP in the PTECs of the kidney is dependent on its binding to megalin. To test this hypothesis, the mice were treated with cilastatin or vehicle (DPBS) for 4 days prior to injection of LC-NP. Cilastatin, an inhibitor of renal dehydropeptidase-I (DHP-I), blocks megalin-mediated uptake in the kidney through competitive inhibition^33. 24 hours post-injection of LC-NP, the mice were euthanized and the major organs were harvested for imaging. […] Next, the specific effect of cilastatin on the binding of LC-NPs to PTECs was examined by treating HK-2 human PTECs in vitro directly with LC-NPs and cilastatin.

Assay [2] deals with T1, megalin (Homo sapiens, UniProt P98164).
T1 construct: effective knockdown of megalin expression in HK-2 cells was performed using siRNA directed against the megalin gene; host or cells: HK-2 human kidney proximal tubular epithelial cells
In words: Uptake of LC-NPs by HK-2 cells after cilastatin or megalin siRNA. It counts as cell-based. The note with it: in vitro. The text has this: FIG. 4G-FIG. 4I. […] FIG. 4H: LC-NPs underwent lower uptake by HK-2 cells treated with cilastatin than vehicle (DPBS)-treated cells. […] Values are means±SD. means±SD. **P<0.01, and ***P<0.001 and ns: not significant as calculated by two-tailed Student's t-test.

Sequence of megalin (Mus musculus, UniProt A2ARV4) (A2ARV4 26-4660): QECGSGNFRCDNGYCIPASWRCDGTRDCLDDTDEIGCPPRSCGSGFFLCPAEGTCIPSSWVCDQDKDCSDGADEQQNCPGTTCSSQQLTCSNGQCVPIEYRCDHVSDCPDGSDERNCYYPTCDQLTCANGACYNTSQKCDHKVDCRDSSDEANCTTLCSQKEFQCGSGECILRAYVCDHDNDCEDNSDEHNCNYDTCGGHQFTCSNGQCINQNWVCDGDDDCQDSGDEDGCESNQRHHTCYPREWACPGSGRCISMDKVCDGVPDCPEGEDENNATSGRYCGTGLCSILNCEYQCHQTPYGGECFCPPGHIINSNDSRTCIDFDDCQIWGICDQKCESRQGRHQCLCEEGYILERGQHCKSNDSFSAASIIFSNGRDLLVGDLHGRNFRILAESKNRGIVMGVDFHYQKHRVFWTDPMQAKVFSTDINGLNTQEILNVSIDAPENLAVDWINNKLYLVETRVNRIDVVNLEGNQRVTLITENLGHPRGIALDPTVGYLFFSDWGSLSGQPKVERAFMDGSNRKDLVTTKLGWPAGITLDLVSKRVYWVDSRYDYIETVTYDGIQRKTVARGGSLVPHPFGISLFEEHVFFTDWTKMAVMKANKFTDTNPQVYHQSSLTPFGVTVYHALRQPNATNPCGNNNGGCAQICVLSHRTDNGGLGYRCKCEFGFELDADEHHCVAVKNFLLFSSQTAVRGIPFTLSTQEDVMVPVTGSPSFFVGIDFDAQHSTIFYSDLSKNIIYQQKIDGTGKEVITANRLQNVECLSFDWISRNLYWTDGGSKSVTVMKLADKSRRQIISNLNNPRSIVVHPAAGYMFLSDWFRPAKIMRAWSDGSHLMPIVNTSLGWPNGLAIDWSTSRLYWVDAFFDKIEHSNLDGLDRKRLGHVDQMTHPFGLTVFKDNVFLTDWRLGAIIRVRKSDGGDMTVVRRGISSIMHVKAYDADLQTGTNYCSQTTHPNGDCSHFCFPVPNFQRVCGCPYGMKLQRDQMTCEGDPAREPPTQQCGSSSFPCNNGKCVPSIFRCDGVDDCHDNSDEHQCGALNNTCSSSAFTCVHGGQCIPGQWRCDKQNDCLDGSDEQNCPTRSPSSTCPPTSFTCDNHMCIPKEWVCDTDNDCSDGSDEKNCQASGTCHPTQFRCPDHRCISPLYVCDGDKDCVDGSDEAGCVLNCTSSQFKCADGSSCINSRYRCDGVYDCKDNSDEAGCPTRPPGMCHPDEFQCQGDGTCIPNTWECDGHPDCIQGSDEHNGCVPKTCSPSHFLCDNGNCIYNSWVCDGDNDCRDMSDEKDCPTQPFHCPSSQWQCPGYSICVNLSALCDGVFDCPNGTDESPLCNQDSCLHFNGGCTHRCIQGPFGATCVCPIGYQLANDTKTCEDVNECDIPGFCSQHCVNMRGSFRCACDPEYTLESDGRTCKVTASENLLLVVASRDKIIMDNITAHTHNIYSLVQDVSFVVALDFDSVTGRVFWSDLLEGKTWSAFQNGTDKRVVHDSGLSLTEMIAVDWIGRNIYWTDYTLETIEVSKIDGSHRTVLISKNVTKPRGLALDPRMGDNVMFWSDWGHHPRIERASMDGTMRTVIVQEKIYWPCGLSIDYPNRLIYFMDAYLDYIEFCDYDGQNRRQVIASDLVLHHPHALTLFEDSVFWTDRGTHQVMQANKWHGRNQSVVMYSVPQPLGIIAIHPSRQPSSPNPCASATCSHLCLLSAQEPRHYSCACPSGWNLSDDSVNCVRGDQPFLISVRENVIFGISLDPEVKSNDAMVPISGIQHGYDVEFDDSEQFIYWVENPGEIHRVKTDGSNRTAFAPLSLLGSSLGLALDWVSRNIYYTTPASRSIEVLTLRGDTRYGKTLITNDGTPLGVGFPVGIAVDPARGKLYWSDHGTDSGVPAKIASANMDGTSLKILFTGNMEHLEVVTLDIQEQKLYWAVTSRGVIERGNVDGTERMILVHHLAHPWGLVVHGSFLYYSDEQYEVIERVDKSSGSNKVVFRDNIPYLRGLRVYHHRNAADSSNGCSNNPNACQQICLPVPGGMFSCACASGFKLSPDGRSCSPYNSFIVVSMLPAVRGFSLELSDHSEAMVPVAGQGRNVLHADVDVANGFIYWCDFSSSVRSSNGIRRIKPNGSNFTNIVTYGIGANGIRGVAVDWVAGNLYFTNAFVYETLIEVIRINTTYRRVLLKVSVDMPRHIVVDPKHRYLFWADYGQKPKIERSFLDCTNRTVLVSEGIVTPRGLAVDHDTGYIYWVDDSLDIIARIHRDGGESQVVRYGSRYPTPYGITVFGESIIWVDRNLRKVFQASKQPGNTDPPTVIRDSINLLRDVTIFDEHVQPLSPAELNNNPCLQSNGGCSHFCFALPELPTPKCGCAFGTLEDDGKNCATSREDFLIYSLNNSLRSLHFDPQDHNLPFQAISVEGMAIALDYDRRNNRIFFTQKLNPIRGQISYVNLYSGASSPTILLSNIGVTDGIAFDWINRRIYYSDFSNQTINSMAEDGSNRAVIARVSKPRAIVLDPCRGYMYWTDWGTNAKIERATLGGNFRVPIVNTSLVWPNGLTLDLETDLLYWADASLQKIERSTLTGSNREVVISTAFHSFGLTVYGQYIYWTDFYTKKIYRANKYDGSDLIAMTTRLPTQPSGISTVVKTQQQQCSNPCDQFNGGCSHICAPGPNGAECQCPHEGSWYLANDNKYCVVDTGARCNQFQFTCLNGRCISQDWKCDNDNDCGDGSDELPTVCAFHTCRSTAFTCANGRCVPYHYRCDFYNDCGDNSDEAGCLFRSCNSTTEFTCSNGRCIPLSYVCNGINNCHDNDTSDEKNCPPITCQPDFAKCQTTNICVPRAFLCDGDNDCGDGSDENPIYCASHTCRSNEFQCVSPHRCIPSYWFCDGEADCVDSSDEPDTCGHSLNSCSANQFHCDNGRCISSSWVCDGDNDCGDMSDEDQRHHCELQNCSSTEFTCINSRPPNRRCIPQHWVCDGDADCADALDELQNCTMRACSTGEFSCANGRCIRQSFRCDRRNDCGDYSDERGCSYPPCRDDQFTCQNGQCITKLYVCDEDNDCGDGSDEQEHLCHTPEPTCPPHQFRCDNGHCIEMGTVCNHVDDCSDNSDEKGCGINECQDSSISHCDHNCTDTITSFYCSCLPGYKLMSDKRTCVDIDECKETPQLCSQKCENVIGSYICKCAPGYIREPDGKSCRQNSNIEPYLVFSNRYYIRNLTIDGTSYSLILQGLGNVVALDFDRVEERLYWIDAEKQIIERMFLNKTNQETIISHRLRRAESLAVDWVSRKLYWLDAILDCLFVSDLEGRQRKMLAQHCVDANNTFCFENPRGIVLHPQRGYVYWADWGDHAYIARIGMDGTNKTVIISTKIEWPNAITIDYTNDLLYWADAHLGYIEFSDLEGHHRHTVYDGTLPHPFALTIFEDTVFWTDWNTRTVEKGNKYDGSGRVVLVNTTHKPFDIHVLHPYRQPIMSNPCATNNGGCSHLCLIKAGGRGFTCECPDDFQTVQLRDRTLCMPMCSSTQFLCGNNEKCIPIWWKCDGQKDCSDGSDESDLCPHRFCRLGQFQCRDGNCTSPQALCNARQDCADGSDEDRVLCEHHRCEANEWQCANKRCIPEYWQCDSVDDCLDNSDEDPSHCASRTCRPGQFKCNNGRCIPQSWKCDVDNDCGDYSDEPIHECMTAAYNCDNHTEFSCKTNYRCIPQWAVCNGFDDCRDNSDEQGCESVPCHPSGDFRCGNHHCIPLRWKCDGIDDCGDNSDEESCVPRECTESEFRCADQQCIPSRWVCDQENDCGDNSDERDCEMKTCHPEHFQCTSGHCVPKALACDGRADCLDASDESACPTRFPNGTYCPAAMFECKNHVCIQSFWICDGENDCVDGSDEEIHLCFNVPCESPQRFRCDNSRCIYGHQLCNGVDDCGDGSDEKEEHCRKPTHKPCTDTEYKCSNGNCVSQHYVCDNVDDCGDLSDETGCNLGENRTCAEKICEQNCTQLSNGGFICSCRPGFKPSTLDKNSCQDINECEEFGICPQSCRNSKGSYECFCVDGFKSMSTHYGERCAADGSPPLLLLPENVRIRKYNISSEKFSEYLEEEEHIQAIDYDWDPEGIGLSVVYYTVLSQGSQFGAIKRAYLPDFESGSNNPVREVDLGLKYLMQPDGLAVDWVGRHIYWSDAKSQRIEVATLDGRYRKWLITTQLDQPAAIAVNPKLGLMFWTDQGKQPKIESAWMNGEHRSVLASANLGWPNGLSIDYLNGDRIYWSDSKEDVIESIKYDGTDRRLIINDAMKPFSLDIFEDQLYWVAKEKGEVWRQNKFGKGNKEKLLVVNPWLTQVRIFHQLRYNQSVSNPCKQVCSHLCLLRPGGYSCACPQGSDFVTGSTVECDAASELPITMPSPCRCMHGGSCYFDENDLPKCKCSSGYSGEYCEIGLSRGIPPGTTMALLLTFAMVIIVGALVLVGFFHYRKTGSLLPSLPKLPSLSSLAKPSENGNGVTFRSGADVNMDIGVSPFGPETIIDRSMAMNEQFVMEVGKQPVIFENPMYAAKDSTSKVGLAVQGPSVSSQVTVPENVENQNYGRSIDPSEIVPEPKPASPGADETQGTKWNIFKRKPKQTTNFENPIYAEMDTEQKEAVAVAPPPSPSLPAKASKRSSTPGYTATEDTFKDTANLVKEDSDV

Turning to `CC1(C)C[C@@H]1C(=O)N/C(=C\CCCCSC[C@H](N)C(=O)O)C(=O)O` [cilastatin, Cilastatin], on megalin [1] (cilastatin 4 days before LC-NP, 24 hours post-injection), the “kidney MFI of LC-NP, cilastatin-treated vs vehicle-treated mice” value was “significantly lower”. Besides, on megalin [1] (mice injected with NPs), the “kidney MFI of NPs, cilastatin-treated vs vehicle-treated mice” value was “no statistical difference”. Moreover, the “number of LC-NPs taken up by HK-2 cells, with vs without cilastatin” value on megalin [2] is recorded as “significantly lower”.
